Some test systems named below: DU-145 prostate; MCF7 breast; MDA-MB-435.
Experiment in all cases: NCI-60 cell line screen, 48 h

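All cell lines were grown in 96-well plates and treated with compound for 48 hours. At the GI50, growth is halved. At the TGI there is no net growth.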 Where only a bound is given, the exact number is not on record here.

Consider `CCOc1nc(-c2ccccc2)cc2c(O)c(-c3nnco3)[nH]c(=O)c12`, for which the results for the GI50 with DU-145 prostate, in the test with MCF7 breast and with MDA-MB-435 were 5.3 µM, 0.507 µM and 8.48 µM, respectively. Also, the TGI in the test with DU-145 prostate, in the test with MCF7 breast and in the test with MDA-MB-435 was more than 100 µM in each case.
As for `C[C@H]1c2cccc(O)c2C(O)=C2C(=O)[C@]3(O)C(O)=C(C(N)=O)C(=O)[C@@H](N(C)C)[C@@H]3[C@@H](O)[C@@H]21`, the GI50 in the test on DU-145 prostate is 3.61 µM; in the test on MCF7 breast, 3.51 µM; with MDA-MB-435, 3.01 µM. Besides, the results for the TGI in the test on DU-145 prostate, in the test with MCF7 breast and with MDA-MB-435 were 12.5 µM, 28.2 µM and 12.6 µM, respectively.
As to `COc1ccc(N2C(=O)C(c3ccccc3)(c3ccccc3)C23C(=O)N(C)c2ccccc23)cc1` (configuration not stated), the GI50 with DU-145 prostate, in the test on MCF7 breast and in the test on MDA-MB-435 was more than 100 µM throughout. Moreover, the TGI with DU-145 prostate, in the test on MCF7 breast and with MDA-MB-435 was more than 100 µM in each case.
As to `O=C(Nc1ccc(OS(=O)(=O)c2ccccc2)cc1)C12CC3CC(CC(C3)C1)C2`, the GI50 in the test with DU-145 prostate is more than 100 µM; in the test with MCF7 breast it was 3.26 µM; with MDA-MB-435, more than 100 µM. For the same compound, the TGI in the test on DU-145 prostate, in the test on MCF7 breast and in the test with MDA-MB-435 was more than 100 µM in each case.
In the case of `Cc1ccc(C(SCC(N)C(=O)O)(c2ccccc2)c2ccc(C)cc2)cc1` (configuration not stated), the values for the GI50 with DU-145 prostate, in the test on MCF7 breast and with MDA-MB-435 were 0.287 µM, 0.0524 µM and 0.0323 µM, respectively. In addition, the figures for the TGI in the test with DU-145 prostate, with MCF7 breast and in the test with MDA-MB-435 were 2.66 µM, 15.4 µM and 0.14 µM, respectively.
With `C[As](C)SC1OC(CO)C(O)C1O` (configuration not stated), the GI50 is 0.189 µM in the test on DU-145 prostate, 0.324 µM in the test on MCF7 breast and 0.154 µM in the test on MDA-MB-435. For the same compound, the TGI with DU-145 prostate worked out at 0.799 µM; in the test with MCF7 breast, 1.3 µM; with MDA-MB-435, 0.746 µM.
For the compound `C=C(F)C(=O)N1CCN(c2nc(OC[C@@H]3CCCN3C)nc3c2CCN(c2cccc4cccc(Cl)c24)C3)C[C@@H]1CC#N`, the values for the GI50 with DU-145 prostate, with MCF7 breast and with MDA-MB-435 were 1.04 µM, 1.05 µM and 0.961 µM, respectively. Moreover, the TGI with DU-145 prostate came to 2.87 µM; with MCF7 breast it was 2.96 µM; in the test with MDA-MB-435, 2.22 µM.
Turning to `Cc1ccc(Cl)cc1Nc1nc(C(F)(F)F)ccc1C(=O)N1CCN(c2ccc(F)cc2)CC1`, the results for the GI50 with DU-145 prostate, in the test on MCF7 breast and in the test on MDA-MB-435 were 17.4 µM, 11.7 µM and 14.2 µM, respectively. In addition, the TGI in the test on DU-145 prostate was found to be 36.6 µM; in the test on MCF7 breast it was 38.7 µM; with MDA-MB-435, 29.6 µM.
In the case of `COc1ccc(C(=O)c2cc(OC)c(C)c(OC)c2)cc1OC(=O)CCl`, the GI50 with DU-145 prostate was 0.322 µM; with MCF7 breast, 0.361 µM; with MDA-MB-435, 0.0265 µM. Further, the values for the TGI in the test on DU-145 prostate, with MCF7 breast and in the test on MDA-MB-435 were 18.2 µM, more than 100 µM and 0.0902 µM, respectively.
For the compound `COc1cc(C(=O)c2cc(C)c3[nH]c4ccc(Cl)cc4c3c2C)cc(OC)c1OC`, the GI50 in the test on DU-145 prostate is 0.0459 µM; with MCF7 breast, 0.0352 µM; with MDA-MB-435 it was 0.0249 µM. Also, the TGI was 3.6 µM in the test on DU-145 prostate, 13.2 µM with MCF7 breast and 0.0733 µM with MDA-MB-435.
In the case of `CC1OC2CC(=O)OC2C2=C1C(=O)c1c(O)cccc1C2=O` (configuration not stated), the GI50 was 0.15 µM with DU-145 prostate, 0.0183 µM in the test with MCF7 breast and 0.0493 µM in the test with MDA-MB-435. Besides, the TGI in the test with DU-145 prostate came to 0.284 µM; in the test on MCF7 breast, 0.0581 µM; in the test on MDA-MB-435, 0.214 µM.
For `OCCN1CN(CCO)CN(c2nc(N3CN(CCO)CN(CCO)C3)nc(N3CN(CCO)CN(CCO)C3)n2)C1`, the TGI in the test on MCF7 breast amounted to 0.69 ng/mL.
Turning to `C=CC1CC12C(=O)C1OC2(C)C2C(=O)c3cc4ccccc4cc3C(=O)C12` (configuration not stated), in the test with MCF7 breast, the GI50 was 16.1 µM and the TGI is more than 100 µM. In the test with MDA-MB-435, the GI50 was 26.3 µM and the TGI is 77.8 µM.
With `COc1ccc(N(C)c2ncnc3occ(C)c23)cc1`, in the test on DU-145 prostate, the GI50 was less than 0.01 µM and the TGI was 0.0208 µM. For the same compound, in the test with MCF7 breast, the GI50 was less than 0.01 µM and the TGI is more than 100 µM.
Turning to `CCC[CH2][Sn]([CH2]CCC)([CH2]CCC)[O]C(=O)CC`, the GI50 is 0.136 µM in the test with DU-145 prostate and 0.178 µM in the test with MDA-MB-435. The TGI worked out at 0.271 µM in the test on DU-145 prostate and 0.458 µM in the test with MDA-MB-435.
Regarding `O=C(OCc1ccc2cccc(O)c2n1)N1CCN(C(=O)c2cc3cc(F)ccc3[nH]2)CC1`, in the test with DU-145 prostate, the GI50 is 1.28 µM and the TGI was found to be 2.67 µM. In the test with MDA-MB-435, the GI50 is 1.19 µM and the TGI was 2.8 µM.
As to `Ic1ccc(Nc2nc3nonc3nc2Nc2ccc(I)cc2)cc1`, the GI50 was 0.365 µM in the test with DU-145 prostate and 0.225 µM in the test on MCF7 breast. In addition, the TGI in the test on DU-145 prostate and in the test with MCF7 breast was more than 100 µM throughout.

These data come from PubChem BioAssay (NCI).
